Results on five compounds are retold here after patent US9718826B2, “Imidazopyrazinone derivatives” (Merck Patent GmbH, priority 2013, dated 2017).

Molecules are shown by their SMILES. Some results are limits rather than exact numbers.

T3 sequence (O95271 1023-1327): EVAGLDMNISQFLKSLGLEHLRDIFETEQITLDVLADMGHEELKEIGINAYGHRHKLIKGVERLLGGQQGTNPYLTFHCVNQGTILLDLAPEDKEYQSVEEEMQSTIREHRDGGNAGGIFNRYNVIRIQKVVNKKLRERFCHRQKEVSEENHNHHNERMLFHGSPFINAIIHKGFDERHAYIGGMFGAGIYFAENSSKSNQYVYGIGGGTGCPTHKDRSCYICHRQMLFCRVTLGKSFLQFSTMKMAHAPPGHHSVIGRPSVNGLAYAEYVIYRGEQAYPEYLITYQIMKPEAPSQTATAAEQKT
T4 sequence (O95271 1023-1327): as above
T2 sequence (P09874 whole entry): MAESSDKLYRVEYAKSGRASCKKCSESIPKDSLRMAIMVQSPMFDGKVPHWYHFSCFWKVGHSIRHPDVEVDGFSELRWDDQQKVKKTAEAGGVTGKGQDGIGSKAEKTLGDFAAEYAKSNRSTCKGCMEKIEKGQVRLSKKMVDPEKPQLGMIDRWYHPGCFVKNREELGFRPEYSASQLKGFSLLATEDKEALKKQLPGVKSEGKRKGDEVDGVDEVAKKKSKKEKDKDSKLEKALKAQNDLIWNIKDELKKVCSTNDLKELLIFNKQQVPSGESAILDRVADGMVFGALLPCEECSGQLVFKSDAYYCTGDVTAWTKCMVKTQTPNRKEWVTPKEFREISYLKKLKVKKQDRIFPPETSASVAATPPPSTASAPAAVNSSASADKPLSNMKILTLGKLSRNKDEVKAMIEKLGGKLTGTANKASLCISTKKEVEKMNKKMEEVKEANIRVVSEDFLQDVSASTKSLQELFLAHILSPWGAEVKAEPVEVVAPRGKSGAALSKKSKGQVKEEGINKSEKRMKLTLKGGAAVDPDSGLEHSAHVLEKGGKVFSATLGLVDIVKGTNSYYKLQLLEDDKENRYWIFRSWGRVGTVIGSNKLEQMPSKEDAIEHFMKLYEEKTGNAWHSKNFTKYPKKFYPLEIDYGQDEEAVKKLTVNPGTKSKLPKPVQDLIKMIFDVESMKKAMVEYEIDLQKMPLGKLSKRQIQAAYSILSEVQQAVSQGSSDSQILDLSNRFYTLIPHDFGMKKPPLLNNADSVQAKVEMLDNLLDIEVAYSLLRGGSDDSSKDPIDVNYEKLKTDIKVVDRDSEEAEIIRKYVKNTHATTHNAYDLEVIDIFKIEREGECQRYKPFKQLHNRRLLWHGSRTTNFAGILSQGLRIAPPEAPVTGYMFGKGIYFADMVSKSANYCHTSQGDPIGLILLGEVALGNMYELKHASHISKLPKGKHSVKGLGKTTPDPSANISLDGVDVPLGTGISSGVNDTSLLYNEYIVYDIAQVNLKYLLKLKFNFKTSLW

The target of one experiment is T1, GST-tagged Tankyrase-2 (873-1166 aa) (Homo sapiens, UniProt Q9H2K2).
T1 construct: GST-tagged Tankyrase-2 (873-1166 aa)
T1 sequence (Q9H2K2 873-1166): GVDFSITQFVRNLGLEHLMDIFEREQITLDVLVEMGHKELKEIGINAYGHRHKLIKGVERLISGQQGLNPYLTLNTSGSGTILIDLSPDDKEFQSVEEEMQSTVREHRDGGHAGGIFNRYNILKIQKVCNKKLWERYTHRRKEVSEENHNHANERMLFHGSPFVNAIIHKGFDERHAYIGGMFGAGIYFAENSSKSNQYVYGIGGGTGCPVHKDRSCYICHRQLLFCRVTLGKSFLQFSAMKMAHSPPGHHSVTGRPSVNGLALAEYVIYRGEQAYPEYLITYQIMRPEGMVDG
Kind of experiment: Tankyrase 2 autoparsylation assay (HTRF). Type of experiment: biochemical. Particulars: read-out: IC50 TNKS2 enzyme assay. Here is the method:
(§1) Biochemical activity testing of Tankyrase 1 and 2: Autoparsylation assay
(§2) The autoparsylation assay is run in two steps: the enzymatic reaction in which GST-tagged Tankyrase-1, resp Tankyrase-2 transferred biotinylated ADP-ribose to itself from biotinylated NAD as co-substrate and the detection reaction where a time resolved FRET between cryptate labelled anti-GST bound to the GST tag of the enzyme and Xlent® labelled-streptavidin bound the biotin-parsylation residue is analysed. The autoparsylation activity was detectable directly via the increase in HTRF signal.
(§3) The autoparsylation assay is performed as 384-well HTRF® (Cisbio, Codolet, France) assay format in Greiner low volume nb 384-well microtiter plates and is used for high throughput screen. 250 nM GST-tagged Tankyrase-1 (1023-1327 aa), respectively about 250 nM GST-tagged Tankyrase-2 (873-1166 aa) and 5 μM bio-NAD (Biolog, Life science Inst., Bremen, Germany) as co-substrate are incubated in a total volume of 5 μl (50 mM HEPES, 4 mM Mg-chloride, 0.05% Pluronic F-68, 1.4 mM DTT, 0.5% DMSO, pH 7.7) in the absence or presence of the test compound (10 dilution concentrations) for 90 min at 30° C. The reaction is stopped by the addition of 1 μl 50 mM EDTA solution. 2 μl of the detection solution (1.6 μM SA-Xlent® (Cisbio, Codolet, France), 7.4 nM Anti-GST-K® (Eu-labelled anti-GST, Cisbio, Codolet, France) in 50 mM HEPES, 800 mM KF, 0.1% BSA, 20 mM EDTA, 0.1% CHAPS, pH 7.0) are added. After 1 h incubation at room temperature the HTRF is measured with an Envision multimode reader (Perkin Elmer LAS Germany GmbH) at excitation wavelength 340 nm (laser mode) and emission wavelengths 615 nm and 665 nm. The ratio of the emission signals is determined. The full value used is the inhibitor-free reaction. The pharmacological zero value used is XAV-939 (Tocris) in a final concentration of 5 μM. The inhibitory values (IC50) are determined using either the program Symyx Assay Explorer® or Condosseo® from GeneData.
(TR-FRET usually uses a lanthanide donor and a delayed reading to cut background.)
Consider `O=c1[nH]c(-c2ccc(C(F)(F)F)cc2)cn2cncc12` [Compound A3, 6-(4-Trifluoromethyl-phenyl)-7H-imidazo[1,5-a]pyrazin-8-one], for which the IC50 (usually the midpoint of a concentration-inhibition curve) was in the range of 300 to 3000 nM.

Turning to `Cn1cc(-c2ccc(-c3cn4cncc4c(=O)[nH]3)cc2)cn1` [Compound A4, 6-[4-(1-methyl-1H-pyrazol-4-yl)-phenyl]-7H-imidazo[1,5-a]pyrazin-8-one], the IC50 is 300 to 3000 nM.

Regarding `O=c1[nH]c(-c2ccc(CO)cc2)cn2cncc12` [Compound A5, 6-(4-hydroxymethyl-phenyl)-7H-imidazo[1,5-a]pyrazin-8-one], the IC50 was in the range of 300 to 3000 nM.

Turning to `CC(C)(O)c1ccc(-c2cn3cncc3c(=O)[nH]2)cc1` [Compound A6, 6-[4-(1-hydroxy-1-methyl-ethyl)-phenyl]-7H-imidazo[1,5-a]pyrazin-8-one], the IC50 lay in the range of 300 to 3000 nM.

The next experiment addresses T2, His-tagged Parp-1 (Homo sapiens, UniProt P09874).
T2 construct: purchased Enzo Life Sciences GmbH, Lörrach, Germany
Kind of experiment: PARP-1 autoparsylation assay (HTRF). Particulars: PARP-1 autoparsylation HTRF. Type of experiment: biochemical. The text has this: Description of the PARP1 Assay
Biochemical Activity Testing of PARP-1: Autoparsylation Assay
The autoparsylation assay is run in two steps: the enzymatic reaction in which His-tagged Parp-1 transfers biotinylated ADP-ribose/ADP-ribose to itself from biotinylated NAD/NAD as co-substrate and the detection reaction where a time resolved FRET between cryptate labelled anti-His antibody bound to the His tag of the enzyme and Xlent® labelled-streptavidin bound the biotin-parsylation residue is analysed. The autoparsylation activity is detectable directly via the increase in HTRF signal.
The autoparsylation assay is performed as 384-well HTRF® (Cisbio, Codolet, France) assay format in Greiner low volume nb 384-well microtiter plates. 35 nM His-tagged Parp-1 (human, recombinant, Enzo Life Sciences GmbH, Lörrach, Germany) and a mixture of 125 nM bio-NAD (Biolog, Life science Inst., Bremen, Germany) and 800 nM NAD as co-substrate are incubated in a total volume of 6 μl (100 mM Tris/HCl, 4 mM Mg-chloride, 0.01% IGEPAL® CA630, 1 mM DTT, 0.5% DMSO, pH 8, 13 ng/μl activated DNA (BPS Bioscience, San Diego, US)) in the absence or presence of the test compound (10 dilution concentrations) for 150 min at 23° C. The reaction is stopped by the addition of 4 μl of the Stop/detection solution (70 nM SA-Xlent® (Cisbio, Codolet, France), 2.5 nM Anti-His-K® (Eu-labelled anti-His, Cisbio, Codolet, France) in 50 mM HEPES, 400 mM KF, 0.1% BSA, 20 mM EDTA, pH 7.0). After 1 h incubation at room temperature the HTRF is measured with an Envision multimode reader (Perkin Elmer LAS Germany GmbH) at excitation wavelength 340 nm (laser mode) and emission wavelengths 615 nm and 665 nm. The ratio of the emission signals is determined. The full value used is the inhibitor-free reaction. The pharmacological zero value used is Olaparib (LClabs, Woburn, US) in a final concentration of 1 μM. The inhibitory values (IC50) are determined using either the program Symyx Assay Explorer® or Condosseo® from GeneData.
Regarding `CC(C)(O)c1ccc(-c2cn3cncc3c(=O)[nH]2)cc1` [Compound A6, 6-[4-(1-hydroxy-1-methyl-ethyl)-phenyl]-7H-imidazo[1,5-a]pyrazin-8-one], the IC50 was in the range of 3000 to 50000 nM.

For a further experiment, the system named is β-catenin.
Assay: not given
Particulars: Huang et al., 2009; cited from earlier work.
Take `Oc1nc(-c2ccc(C(F)(F)F)cc2)nc2c1CSCC2` [XAV939]: the “Wnt-stimulated accumulation of β-catenin” value was “blocked”.

The next experiment relates to DLD-1-cancer cells.
Assay: not given
Particulars: Huang et al., 2009; cited from earlier work.
Consider `Oc1nc(-c2ccc(C(F)(F)F)cc2)nc2c1CSCC2` [XAV939], for which the “growth of DLD-1-cancer cells” value is “inhibits growth”.

The next experiment concerns the target T3, GST-tagged Tnks-1 (1023-1327 aa) (Homo sapiens, UniProt O95271).
T3 construct: GST-tagged Tnks-1 (1023-1327 aa, prepared in-house); made in house
The experiment is described as follows: TNKS1 activity ELISA (autoparsylation assay). Type of experiment: biochemical.
Conditions: not given
The protocol:
(§4) Description of the TNKS1 and TNKS2 ELISA Assay
(§5) Biochemical Activity Testing of TNKS 1 and 2: Activity ELISA (Autoparsylation Assay)
(§6) For analysis of autoparsylation activity of TNKS 1 and 2 an activity ELISA is performed: In the first step GST tagged TNKS is captured on a Glutathione coated plate. Then the activity assay with biotinylated NAD is performed in the absence/presence of the compounds. During the enzymatic reaction GST tagged TNKS transfers biotinylated ADP-ribose to itself from biotinylated NAD as co-substrate. For the detection streptavidin-HRP conjugate is added that binds to the biotinylated TNKS and is thereby captured to the plates. The amount of biotinylated resp. autoparsylated TNKS is detected with a luminescence substrate for HRP. The level of the luminescence signal correlates directly with the amount of autoparsylated TNKS and therefore with activity of TNKS.
(§7) The activity ELISA is performed in 384 well Glutathione coated microtiter plates (Express capture Glutathione coated plate, Biocat, Heidelberg, Germany). The plates are pre-equilibrated with PBS. Then the plates are incubated with 50 μl 20 ng/well GST-tagged Tnks-1 (1023-1327 aa, prepared in-house), respectively GST-tagged Tnks-2 (873-1166 aa, prepared in-house) in assay buffer (50 mM HEPES, 4 mM Mg-chloride, 0.05% Pluronic F-68, 2 mM DTT, pH 7.7) overnight at 4° C. The plates are washed 3 times with PBS-Tween-20. The wells are blocked by incubation at room temperature for 20 minutes with 50 μl blocking buffer (PBS, 0.05% Tween-20, 0.5% BSA). Afterwards the plates are washed 3 times with PBS-Tween-20. The enzymatic reaction is performed in 50 μl reaction solution (50 mM HEPES, 4 mM Mg-chloride, 0.05% Pluronic F-68, 1.4 mM DTT, 0.5% DMSO, pH 7.7) with 10 μM bio-NAD (Biolog, Life science Inst., Bremen, Germany) as co-substrate in the absence or presence of the test compound (10 dilution concentrations) for 1 hour at 30° C. The reaction is stopped by 3 times washing with PBS-Tween-20. For the detection 50 μl of 20 ng/μl Streptavidin, HRP conjugate (MoBiTec, Göttingen, Germany) in PBS/0.05% Tween-20/0.01% BSA are added and the plates are incubated for 30 minutes at room temperature. After three times washing with PBS-Tween-20 50 μl of SuperSignal ELISA Femto Maximum sensitivity substrate solution (ThermoFisherScientific (Pierce), Bonn, Germany) are added. Following a 1 minute incubation at room temperature luminescence signals are measured with an Envision multimode reader (Perkin Elmer LAS Germany GmbH) at 700 nm. The full value used is the inhibitor-free reaction. The pharmacological zero value used is XAV-939 (Tocris) in a final concentration of 5 μM. The inhibitory values (IC50) are determined using either the program Symyx Assay Explorer® or Condosseo® from GeneData.
A general note: ELISA stands for enzyme-linked immunosorbent assay.
As to `O=c1[nH]c(-c2ccc(C(F)(F)F)cc2)cn2cncc12` [Compound A3, 6-(4-Trifluoromethyl-phenyl)-7H-imidazo[1,5-a]pyrazin-8-one], the IC50 was below 300 nM.

Compound `Cn1cc(-c2ccc(-c3cn4cncc4c(=O)[nH]3)cc2)cn1` [Compound A4, 6-[4-(1-methyl-1H-pyrazol-4-yl)-phenyl]-7H-imidazo[1,5-a]pyrazin-8-one] showed an IC50 below 300 nM.

Compound `O=c1[nH]c(-c2ccc(CO)cc2)cn2cncc12` [Compound A5, 6-(4-hydroxymethyl-phenyl)-7H-imidazo[1,5-a]pyrazin-8-one] had an IC50 below 300 nM.

Compound `CC(C)(O)c1ccc(-c2cn3cncc3c(=O)[nH]2)cc1` [Compound A6, 6-[4-(1-hydroxy-1-methyl-ethyl)-phenyl]-7H-imidazo[1,5-a]pyrazin-8-one] gave an IC50 below 300 nM.

Another experiment addresses T4, GST-tagged Tankyrase-1 (1023-1327 aa) (Homo sapiens, UniProt O95271).
T4 construct: GST-tagged Tankyrase-1 (1023-1327 aa)
Kind of experiment: Tankyrase 1 autoparsylation assay (HTRF). In kind it is biochemical. Particulars: read-out: IC50 TNKS1 enzyme assay. Here is the method: as §1, §2, §3
In the case of `O=c1[nH]c(-c2ccc(C(F)(F)F)cc2)cn2cncc12` [Compound A3, 6-(4-Trifluoromethyl-phenyl)-7H-imidazo[1,5-a]pyrazin-8-one], the IC50 was in the range of 300 to 3000 nM.

`Cn1cc(-c2ccc(-c3cn4cncc4c(=O)[nH]3)cc2)cn1` [Compound A4, 6-[4-(1-methyl-1H-pyrazol-4-yl)-phenyl]-7H-imidazo[1,5-a]pyrazin-8-one]: the IC50 fell in the range of 300 to 3000 nM.

Take `O=c1[nH]c(-c2ccc(CO)cc2)cn2cncc12` [Compound A5, 6-(4-hydroxymethyl-phenyl)-7H-imidazo[1,5-a]pyrazin-8-one]: the IC50 was in the range of 300 to 3000 nM.

In the case of `CC(C)(O)c1ccc(-c2cn3cncc3c(=O)[nH]2)cc1` [Compound A6, 6-[4-(1-hydroxy-1-methyl-ethyl)-phenyl]-7H-imidazo[1,5-a]pyrazin-8-one], the IC50 lay within 300 to 3000 nM.

For another experiment, the target named is T5, GST-tagged Tnks-2 (873-1166 aa) (Homo sapiens, UniProt Q9H2K2).
T5 construct: GST-tagged Tnks-2 (873-1166 aa, prepared in-house); made in house
T5 sequence (Q9H2K2 873-1166): as above
The experiment is described as follows: TNKS2 activity ELISA (autoparsylation assay). In kind it is biochemical.
Conditions: not given
Here is the method:
as §4, §5, §6, §7
As to `O=c1[nH]c(-c2ccc(C(F)(F)F)cc2)cn2cncc12` [Compound A3, 6-(4-Trifluoromethyl-phenyl)-7H-imidazo[1,5-a]pyrazin-8-one], the IC50 is below 300 nM.

On to `Cn1cc(-c2ccc(-c3cn4cncc4c(=O)[nH]3)cc2)cn1` [Compound A4, 6-[4-(1-methyl-1H-pyrazol-4-yl)-phenyl]-7H-imidazo[1,5-a]pyrazin-8-one], for which the IC50 is below 300 nM.

As for `O=c1[nH]c(-c2ccc(CO)cc2)cn2cncc12` [Compound A5, 6-(4-hydroxymethyl-phenyl)-7H-imidazo[1,5-a]pyrazin-8-one], the IC50 is below 300 nM.

`CC(C)(O)c1ccc(-c2cn3cncc3c(=O)[nH]2)cc1` [Compound A6, 6-[4-(1-hydroxy-1-methyl-ethyl)-phenyl]-7H-imidazo[1,5-a]pyrazin-8-one] gave an IC50 below 300 nM.
